In general, pIC50 refers to −log10 of the IC50, conventionally taken in molar units.

The source of these data is patent publication US5866571A, “9-substituted 2-(2-n-alkoxyphenyl)-purin-6-ones” (Bayer Aktiengesellschaft, priority 1995, dated 1999).

pIC50: −log10 of the molar value.

Assay type in all cases: biochemical
For test [1], the system named is PDE V (cGMP-specific PDE V). The experiment in a line: Inhibition of the phosphodiesterases in vitro: PDE V. To be noted: enzyme from porcine small intestine, porcine aorta and/or human blood platelets; 10^-6 mol/l nucleotide, pH 7.5, 30 minutes. How it is done:
(§1) Activity of the phosphodiesterases (PDE's)
(§2) The cGMP-stimulatable PDE II, the cGMP-inhibitable PDE III and the cAMP-specific PDE IV were isolated from either the porcine or the bovine myocardium. The Ca-calmodulin-stimulatable PDE I was isolated from porcine aorta or porcine brain. The cGMP-specific PDE V was obtained from porcine small intestine, porcine aorta and/or human blood platelets. Purification was carried out by anion exchange chromatography on MonoQ^R Pharmacia essentially by the method of M. Hoey and Miles D. Houslay, Biochemical Pharmacology, Volume 40, 193-202 (1990).
(§3) The enzyme activity is determined in a test batch of 100 μl in 20 mM Tris/HCl buffer of pH 7.5 which contains 5 mM MgCl2, 0.1 mg/ml of bovine serum albumin and either 800 Bq of ^3 HcAMP or ^3 HcGMP. The final concentration of the corresponding nucleotides is 10^-6 mol/l. The reaction is started by addition of the enzyme and the amount of enzyme is chosen such that about 50% of the substrate is reacted during the incubation time of 30 minutes. In order to test the cGMP-stimulatable PDE II, ^3 HcAMP is used as the substrate and 10^-6 mol/l of non-labelled cGMP is added to the batch. In order to test the Ca-calmodulin-dependent PDE I, 1 μM CaCl2 and 0.1 μM calmodulin are also added to the reaction batch. The reaction is stopped by addition of 100 μl of acetonitrile which contains 1 mM cAMP and 1 mM AMP. 100 μl of the reaction batch are separated on the […] and the cleavage products are determined quantitatively "on line" with a flow-through scintillation counter. The substance concentration at which the rate of reaction is reduced by 50% is measured.
(§4) Inhibition of the phosphodiesterases in vitro

Test [2] deals with PDE II (cGMP-stimulatable PDE II). The experiment in a line: Inhibition of the phosphodiesterases in vitro: PDE II. The settings on record: enzyme from porcine or bovine myocardium; ^3HcAMP substrate plus 10^-6 mol/l non-labelled cGMP, pH 7.5, 30 minutes. The method, then: as §1, §2, §3, §4
Test [3] deals with PDE I (Ca-calmodulin-stimulatable PDE I). Kind of test: Inhibition of the phosphodiesterases in vitro: PDE I. To be noted: enzyme from porcine aorta or porcine brain; 1 μM CaCl2, 0.1 μM calmodulin; 10^-6 mol/l nucleotide, pH 7.5, 30 minutes. The method, then:
as §1, §2, §3, §4

On to `CCCOc1ccccc1-c1nc2c(ncn2C(CCc2ccccc2)C(C)O)c(=O)[nH]1` (stereo not drawn) [Example 4, 9-(2-hydroxy-5-phenyl-3-methyl)-2-(2-n-propoxyphenyl)-purin-6-one], for which the pIC50 in test [1] is 5.30; in test [2], 6.00; in test [3] it was 5.70.
Turning to `CCCOc1ccccc1-c1nc2c(ncn2C(CCCc2ccccc2)C(C)O)c(=O)[nH]1` (stereo not drawn) [Example 5, 9-(2-hydroxy-6-phenyl-3-hexyl)-2-(2-n-propoxyphenyl)-purin-6-one], the pIC50 in test [1] was 5.70; in test [2], 6.30; in test [3], 6.00.
Consider `CCCCCCC(C(C)O)n1cnc2c(=O)[nH]c(-c3ccccc3OCCC)nc21` (stereo not drawn) [Example 3, 9-(2-hydroxy-3-nonyl)-2-(2-n-propoxyphenyl)-purin-6-one], for which the pIC50 in test [1] is 7.00; in test [2] it was 5.22; in test [3], 4.30.
`CCCOc1ccccc1-c1nc2c(ncn2C(C)CCCc2ccccc2)c(=O)[nH]1` (stereo not drawn) [Example 11]: the pIC50 in test [1] was 6.30; in test [2], 6.52; in test [3], 6.30.
As for `CCCCCCC(C(C)NC(C)=O)n1cnc2c(=O)[nH]c(-c3ccccc3OCCC)nc21` (stereo not drawn) [Example 37, 9-(2-Acetamido-3-nonyl)-2-(2-n-propoxyphenyl)-purin-6-one], the pIC50 was 6.00 in test [1], 5.70 in test [2] and 5.70 in test [3].
Consider `CCCCCCC(CC)n1cnc2c(=O)[nH]c(-c3cc(S(=O)(=O)N4CCOCC4)ccc3OCCC)nc21` (stereo not drawn) [Example 57], for which the pIC50 was 7.00 in test [1], 6.52 in test [2] and 6.52 in test [3].
